Results on three compounds are retold here after article PMC9611727, “Optimization of a Novel Mandelamide-Derived Pyrrolopyrimidine Series of PERK Inhibitors” (Pharmaceutics, 2022).

Holding throughout (assay): scanMAX kinase panel
What all share (assay type): binding
Holding throughout (details): read-out: % Control; for remaining binding at 1 µM: 1000 nM

One experiment has as its target T1, KIT(L576P) (Homo sapiens, UniProt P10721, L576P).
T1 construct: purchased DiscoverX scanMAX
From the text:
(§1) Supplemental Table S2. scanMAXSM Kinome Assay Results. Complete tabulated data of all 468 kinases from the panel, including
(§2) 403 wild-type and 65 mutant isoforms. […] Cmpd 11 and Cmpd 24

In another experiment the target is T2, TRKC (Homo sapiens, UniProt Q16288).
T2 construct: purchased DiscoverX (scanMAX panel)
T2 sequence (Q16288 32-839): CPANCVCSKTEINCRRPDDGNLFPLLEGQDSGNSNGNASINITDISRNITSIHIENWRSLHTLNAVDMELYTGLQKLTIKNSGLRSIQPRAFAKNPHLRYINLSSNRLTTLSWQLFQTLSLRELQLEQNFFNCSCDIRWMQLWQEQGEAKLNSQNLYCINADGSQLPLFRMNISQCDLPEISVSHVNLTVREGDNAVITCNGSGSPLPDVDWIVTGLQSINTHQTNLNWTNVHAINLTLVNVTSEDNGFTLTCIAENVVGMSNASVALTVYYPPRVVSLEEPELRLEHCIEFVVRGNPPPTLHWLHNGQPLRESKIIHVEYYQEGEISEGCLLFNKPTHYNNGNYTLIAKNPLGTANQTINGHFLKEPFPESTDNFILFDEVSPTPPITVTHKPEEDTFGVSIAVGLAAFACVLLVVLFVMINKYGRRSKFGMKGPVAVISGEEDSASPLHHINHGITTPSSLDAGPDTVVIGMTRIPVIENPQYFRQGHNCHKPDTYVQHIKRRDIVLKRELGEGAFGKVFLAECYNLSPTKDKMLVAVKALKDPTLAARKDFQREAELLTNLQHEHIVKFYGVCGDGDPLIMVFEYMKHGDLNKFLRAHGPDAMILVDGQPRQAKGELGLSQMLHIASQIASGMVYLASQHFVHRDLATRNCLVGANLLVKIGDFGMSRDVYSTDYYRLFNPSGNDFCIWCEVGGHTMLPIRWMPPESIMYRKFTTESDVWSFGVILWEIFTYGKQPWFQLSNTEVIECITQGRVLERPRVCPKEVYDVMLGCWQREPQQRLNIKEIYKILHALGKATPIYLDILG
Excerpt: as §1, §2

Another experiment deals with T3, MKNK2 (Homo sapiens, UniProt Q9HBH9).
T3 construct: purchased DiscoverX scanMAX
T3 sequence (Q9HBH9 whole entry): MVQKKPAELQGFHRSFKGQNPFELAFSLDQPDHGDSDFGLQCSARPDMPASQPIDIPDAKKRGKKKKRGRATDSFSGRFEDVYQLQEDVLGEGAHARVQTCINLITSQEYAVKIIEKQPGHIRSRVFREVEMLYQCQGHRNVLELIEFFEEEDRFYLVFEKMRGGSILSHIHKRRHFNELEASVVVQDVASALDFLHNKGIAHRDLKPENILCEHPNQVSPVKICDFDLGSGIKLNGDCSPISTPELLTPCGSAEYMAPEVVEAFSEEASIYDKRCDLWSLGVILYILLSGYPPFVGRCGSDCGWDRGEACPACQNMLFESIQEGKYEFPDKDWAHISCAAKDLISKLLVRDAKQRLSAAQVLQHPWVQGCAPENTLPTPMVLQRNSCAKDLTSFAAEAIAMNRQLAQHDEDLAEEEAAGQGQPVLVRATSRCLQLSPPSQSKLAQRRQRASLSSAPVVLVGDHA
Excerpt: as §1, §2

A further experiment concerns the target T4, PAK3 (Homo sapiens, UniProt O75914).
T4 construct: purchased DiscoverX scanMAX
Excerpt: as §1, §2

For the next experiment, the target named is T5, RIPK5 (Homo sapiens, UniProt Q6XUX3).
T5 construct: purchased DiscoverX (scanMAX panel)
T5 sequence (Q6XUX3 1-929): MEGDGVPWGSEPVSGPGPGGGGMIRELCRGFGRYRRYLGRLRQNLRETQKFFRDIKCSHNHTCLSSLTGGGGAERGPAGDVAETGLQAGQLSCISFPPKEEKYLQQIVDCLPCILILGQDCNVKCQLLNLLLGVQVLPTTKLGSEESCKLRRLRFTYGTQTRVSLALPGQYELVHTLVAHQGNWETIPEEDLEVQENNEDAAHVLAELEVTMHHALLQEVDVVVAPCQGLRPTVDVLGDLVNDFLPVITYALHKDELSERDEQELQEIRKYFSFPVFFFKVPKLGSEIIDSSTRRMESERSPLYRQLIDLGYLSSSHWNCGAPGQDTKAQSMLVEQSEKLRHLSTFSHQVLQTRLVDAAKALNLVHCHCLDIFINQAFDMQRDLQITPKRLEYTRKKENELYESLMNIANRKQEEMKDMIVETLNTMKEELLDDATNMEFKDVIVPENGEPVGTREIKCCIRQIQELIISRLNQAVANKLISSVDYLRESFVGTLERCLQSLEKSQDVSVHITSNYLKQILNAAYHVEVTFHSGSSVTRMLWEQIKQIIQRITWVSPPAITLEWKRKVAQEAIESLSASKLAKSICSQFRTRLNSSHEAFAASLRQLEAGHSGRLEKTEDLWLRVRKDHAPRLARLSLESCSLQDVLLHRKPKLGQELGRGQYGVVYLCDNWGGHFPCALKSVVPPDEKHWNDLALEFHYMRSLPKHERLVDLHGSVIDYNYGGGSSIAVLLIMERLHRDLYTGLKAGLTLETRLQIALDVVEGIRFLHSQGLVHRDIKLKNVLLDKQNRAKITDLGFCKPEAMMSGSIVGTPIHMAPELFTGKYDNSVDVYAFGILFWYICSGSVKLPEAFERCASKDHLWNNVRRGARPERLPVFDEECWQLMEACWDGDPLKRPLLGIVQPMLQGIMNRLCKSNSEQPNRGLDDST
Excerpt: as §1, §2

The target of another experiment is T6, MAP3K2 (Homo sapiens, UniProt Q9Y2U5).
T6 construct: purchased DiscoverX scanMAX
T6 sequence (Q9Y2U5 1-619): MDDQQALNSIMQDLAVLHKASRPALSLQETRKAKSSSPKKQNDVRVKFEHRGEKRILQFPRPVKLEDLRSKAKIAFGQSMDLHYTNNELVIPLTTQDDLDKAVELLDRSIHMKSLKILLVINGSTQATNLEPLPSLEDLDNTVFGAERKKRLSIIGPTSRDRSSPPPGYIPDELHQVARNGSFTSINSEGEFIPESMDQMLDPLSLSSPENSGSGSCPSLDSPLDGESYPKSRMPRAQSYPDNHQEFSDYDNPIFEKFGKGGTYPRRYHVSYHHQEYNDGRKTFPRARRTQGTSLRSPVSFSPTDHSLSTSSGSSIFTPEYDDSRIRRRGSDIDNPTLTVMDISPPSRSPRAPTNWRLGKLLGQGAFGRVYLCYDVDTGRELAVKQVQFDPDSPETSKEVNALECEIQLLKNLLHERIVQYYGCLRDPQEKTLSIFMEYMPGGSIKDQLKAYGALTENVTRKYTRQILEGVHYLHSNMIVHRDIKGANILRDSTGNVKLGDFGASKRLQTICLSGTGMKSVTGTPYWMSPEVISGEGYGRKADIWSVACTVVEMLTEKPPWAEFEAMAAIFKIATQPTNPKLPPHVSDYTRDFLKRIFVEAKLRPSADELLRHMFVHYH
Excerpt: as §1, §2

A further experiment deals with T7, HIPK4 (Homo sapiens, UniProt Q8NE63).
T7 construct: purchased DiscoverX scanMAX
T7 sequence (Q8NE63 1-616): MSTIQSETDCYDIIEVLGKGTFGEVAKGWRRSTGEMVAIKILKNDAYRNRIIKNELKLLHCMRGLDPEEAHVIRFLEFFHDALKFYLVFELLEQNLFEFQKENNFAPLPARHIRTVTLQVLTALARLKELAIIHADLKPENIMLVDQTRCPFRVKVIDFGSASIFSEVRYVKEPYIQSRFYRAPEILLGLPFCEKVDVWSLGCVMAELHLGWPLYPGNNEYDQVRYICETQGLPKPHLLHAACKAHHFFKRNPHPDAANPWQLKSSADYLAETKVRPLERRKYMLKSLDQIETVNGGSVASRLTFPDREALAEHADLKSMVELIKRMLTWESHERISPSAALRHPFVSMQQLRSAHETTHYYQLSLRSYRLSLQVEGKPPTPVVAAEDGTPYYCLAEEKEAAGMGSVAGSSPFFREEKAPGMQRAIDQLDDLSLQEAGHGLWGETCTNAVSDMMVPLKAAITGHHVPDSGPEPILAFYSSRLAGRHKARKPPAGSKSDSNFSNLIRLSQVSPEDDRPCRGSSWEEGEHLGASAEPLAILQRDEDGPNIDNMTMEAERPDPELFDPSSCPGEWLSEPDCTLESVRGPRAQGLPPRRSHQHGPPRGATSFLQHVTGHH
Excerpt: as §1, §2

T1 sequence (P10721 26-976 L576P): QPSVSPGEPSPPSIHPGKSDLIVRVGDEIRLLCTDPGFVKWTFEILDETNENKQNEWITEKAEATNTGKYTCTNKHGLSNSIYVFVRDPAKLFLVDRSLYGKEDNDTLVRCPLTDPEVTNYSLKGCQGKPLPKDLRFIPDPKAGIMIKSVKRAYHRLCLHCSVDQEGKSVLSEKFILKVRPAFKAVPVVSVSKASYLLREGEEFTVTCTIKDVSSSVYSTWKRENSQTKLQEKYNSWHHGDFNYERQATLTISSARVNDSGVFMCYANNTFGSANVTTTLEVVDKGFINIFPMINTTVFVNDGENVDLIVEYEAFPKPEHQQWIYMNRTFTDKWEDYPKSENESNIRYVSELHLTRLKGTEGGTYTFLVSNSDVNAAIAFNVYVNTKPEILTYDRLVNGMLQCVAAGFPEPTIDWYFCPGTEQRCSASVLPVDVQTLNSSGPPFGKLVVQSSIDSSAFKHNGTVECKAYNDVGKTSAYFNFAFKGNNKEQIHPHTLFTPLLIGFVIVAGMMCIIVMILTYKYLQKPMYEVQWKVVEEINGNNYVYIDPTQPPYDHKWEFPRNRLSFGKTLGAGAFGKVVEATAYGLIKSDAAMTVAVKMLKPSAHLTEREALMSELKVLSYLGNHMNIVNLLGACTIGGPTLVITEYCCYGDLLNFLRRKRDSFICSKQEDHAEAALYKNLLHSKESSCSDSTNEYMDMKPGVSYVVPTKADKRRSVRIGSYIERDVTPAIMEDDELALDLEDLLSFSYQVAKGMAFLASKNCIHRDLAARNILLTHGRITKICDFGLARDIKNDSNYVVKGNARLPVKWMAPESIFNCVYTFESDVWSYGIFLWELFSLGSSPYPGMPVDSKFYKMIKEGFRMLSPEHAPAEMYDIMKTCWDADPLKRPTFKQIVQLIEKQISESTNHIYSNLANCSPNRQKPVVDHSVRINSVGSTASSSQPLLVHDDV
T4 sequence (O75914 whole entry): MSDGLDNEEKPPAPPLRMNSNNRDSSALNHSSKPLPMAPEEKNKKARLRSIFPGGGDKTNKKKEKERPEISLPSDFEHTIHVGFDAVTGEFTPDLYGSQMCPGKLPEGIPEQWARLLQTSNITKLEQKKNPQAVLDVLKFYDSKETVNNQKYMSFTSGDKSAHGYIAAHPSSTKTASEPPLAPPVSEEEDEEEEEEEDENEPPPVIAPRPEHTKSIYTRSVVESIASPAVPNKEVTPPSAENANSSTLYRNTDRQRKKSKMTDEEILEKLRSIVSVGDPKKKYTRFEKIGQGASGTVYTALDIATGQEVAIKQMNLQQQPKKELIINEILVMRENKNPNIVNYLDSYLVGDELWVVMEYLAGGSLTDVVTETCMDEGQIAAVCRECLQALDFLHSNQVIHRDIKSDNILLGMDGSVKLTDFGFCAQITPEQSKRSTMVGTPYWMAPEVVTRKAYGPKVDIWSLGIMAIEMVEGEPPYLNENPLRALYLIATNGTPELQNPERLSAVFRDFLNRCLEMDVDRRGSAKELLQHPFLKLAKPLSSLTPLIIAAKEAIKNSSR

Regarding `Cc1cc(NC(=O)[C@H](O)c2cccc(F)c2)ccc1-c1cn(C)c2ncnc(N)c12` [Compound 11, (R)-N-(4-(4-amino-7-methyl-7H-pyrrolo[2,3-d]pyrimidin-5-yl)-3-methylphenyl)-2-(3-fluorophenyl)-2-hydroxy acetamide], the remaining binding at 1 µM at KIT(L576P) worked out at 36%; at TRKC, 9.5%; at MKNK2, 1.2%; on PAK3, 36%; on RIPK5, 3.4%; at MAP3K2, 14%. For the same compound, on HIPK4, the remaining binding at 1 µM came to 16%.
For `Cc1nc(N)c2c(-c3ccc(NC(=O)[C@H](O)c4cccc(C(F)(F)F)c4)cc3C)cn(C)c2n1` [Compound 26], the remaining binding at 0.1 µM on KIT(L576P) (100 nM) turned out to be 85%; at TRKC (100 nM), 100%; at MKNK2 (100 nM), 88%; on PAK3 (100 nM), 97%; at RIPK5 (100 nM), 100%; on MAP3K2 (100 nM), 100%. Besides, the remaining binding at 0.1 µM at HIPK4 (100 nM) stood at 69%. The remaining binding at 1 µM at KIT(L576P) was 2.6%; at TRKC, 10%; at MKNK2, 3.9%; at PAK3, 31%; on RIPK5 it was 100%; at MAP3K2, 89%. Moreover, at HIPK4, the remaining binding at 1 µM turned out to be 3.8%.
Take `Cc1nc(N)c2c(-c3ccc(NC(=O)[C@H](O)c4cccc(F)c4)cc3C)cn(C)c2n1` [Compound 24]: the remaining binding at 1 µM at KIT(L576P) was 98%; at TRKC it was 79%; at MKNK2 it was 58%; on PAK3 it was 100%; at RIPK5, 100%; on MAP3K2, 100%. In addition, the remaining binding at 1 µM on HIPK4 came out at 100%.
